# Earlier results, collected in patent US20040247676A1, “Use of multi-layer controlled-release tablet comprising ropinirole for the manufacture of medicament for the treatment of fibromyalgia” (priority 2001, published 2004).
# Structures can show the parent of a compound that is named as a salt.
# Tested on: fibromyalgia
# Conditions: immediate release formulation
compound,measurement,value
CCCN(CCC)CCc1cccc2c1CC(=O)N2 [ropinirole hydrochloride],effectiveness in the treatment of fibromyalgia,particularly effective
